Measurements from patent publication US9260710B2, “Photocleavable linker” (City of Hope, priority 2012, dated 2016).

What was measured:
[1] = system: non-transfected or GFPFKBP-expressing cells; assay: Organelle dispersion in cells without trap treated with AP20187; assay type: cell-based
Text: In vivo effect of Dynein LC and IC Traps. As tests for LC function, we evaluated the effects of the traps on early endosome, lysosome, and Golgi distribution, as well as mitotic progression. First, we fused green fluorescent protein (GFP) to the N-terminus of both FKBP-traps to identify transfected cells. Next, we transfected Cos1, Cos7, or HeLa cells with either trap or a GFP-FKBP control and labeled endosomes, lysosomes and Golgi with EEA1, LAMP2 and GM130 markers, respectively (FIGS. 12A-12C). […] The percentage of cells expressing the GFPLC8 or GFP-TcTex1 trap with dispersed endosomes was 14.7±1.5% and 13.3±1.5%, respectively, as compared to 11.7±3.5% and 10.3±3.5% for non-transfected cells and cells that expressed a GFP-FKBP control, respectively. […] After 8 h of treatment with AP20187, we observed greater than 50% dispersion of the three organelle types for each trap.
To ensure the AP20187 concentration was not limiting, we followed the LC8-trap-induced dispersion of lysosomes as a function of AP20187 concentration after 8 h. […] For the TcTex1-trap, we observed efficient endosome, lysosome and Golgi dispersion at AP20187 concentrations of 1 μM or greater.

[2] = system: TcTex1 and FKBP-IC peptide (TcTex1 trap); assay: Native PAGE and SEC of TcTex1 / TcTex-trap complex formation with AP20187; assay type: biochemical
Text: To generate a TcTex1 trap, residues 107-125 of rat dynein IC2C, which specifically interact with TcTex1, were fused to the C-terminus of FKBP (FKBP-IC; FIG. 10D). […] However, addition of AP20187 to the admixture of FKBP-IC (L112A) peptide and TcTex1 produced a shift, but required a 16-fold higher concentration of AP20187 than the LC8/LC8-trap interaction (FIG. 10E, round 2). Based on this observation, we hypothesized that the sequence immediately preceding the TcTex1-binding region may interfere with the interaction, either through conformational restriction due to P109 or electrostatic repulsion due to K111. Therefore, we mutated the sequence PIK to GGS, to introduce flexible, hydrophilic residues (residues 109-111) (FIG. 10D).

[3] = system: EGFP-FKBP-LC8TRAP transfected COS1 cells; assay: Endosome dispersion (EEA1 staining) in trap-transfected cells; assay type: cell-based; conditions: for time of drug treatment after which maximum dispersion was reached: unchanged with further increase in time; for maximum number of cells with dispersed endosomes: 2 h, dimerizer concentrations greater than 500 nM; for drug concentration at which maximum dispersion is seen: 2 hrs treatment, unchanged with further increase in concentration
Experimental: Cell Culture. COS1 cells were cultured in DMEM (CELLGRO®) supplemented with 10% fetal bovine/calf serum (Omega Scientific). Transfection was performed in 80-90% confluent 24-h cultures of COS1 cells using LIPOFECTAMINE™ 2000 (Invitrogen) and OPTI-MEM™ media (GIBCO®) according to the manufacturer's recommendations. Various concentrations (0 nM to 1000 nM) of AP (Ariad Pharmaceuticals Inc.) and PhAP (as described herein) were added to each experimental wells 24 hr. post transfection and incubated for different periods of time before analyzing the cells. For reversibility of endosome dispersion studies, 500 nM of AP/PhAP were used. In each case, the cells were washed well with PBS and supplemented with fresh media before inducing with UV light (10 mins., 4 W, 350 nm) and allowed to recover for various time period at 37° C., before analysis.
Immunostaining and Microscopy. For immunostaining, transiently transfected COS1 cells were fixed with 3.7% formaldehyde at room temperature for 10 min, and subsequent immunostaining was performed as described previously^[2]. Briefly, COS 1 cells grown on 25-mm coverslips were washed 3× with PBS, treated with 3.7% formaldehyde (Sigma) in PBS for fixation, and permeabilized in 0.5% Triton X-100 (Sigma) in PBS at room temperature for 10 min. Cells were then incubated with blocking buffer containing 4% skimmed milk (fat free) and 0.5% Triton X-100 in PBS. Anti-EEA1 monoclonal antibody was added to label early endosome marker protein at a dilution of 1:100 in the same buffer for 30 min at RT, and the coverslips were washed and incubated with rhodamine-conjugated donkey anti-mouse secondary antibody (1:100). After washing, the coverslips were mounted on slides to visualize the trapping effects. Samples were viewed using an Olympus IX81 automated inverted microscope equipped with water immersion 60× objective. The level of dispersion was quantified by counting 100 cells per coverslip. Each experiment was performed in triplicate. Images were obtained using a Spot RT Slider high-resolution cooled CCD camera equipped to IX81 microscope and Image-Pro software. Images were cropped and processed using Adobe Photoshop 7.0 (Adobe Systems).
To determine if these biochemical results had relevance in cells, we investigated if photocleavage of PhAP could reverse the endosome dispersion phenotype induced by LC8TRAP and AP. First, we established that PhAP behaved in a similar intracellular manner as AP. To this end, we used a green fluorescent protein (GPF) analog of the trap, EGFP-FKBP-LC8TRAP to identify cells that expressed the trap. COS1 cells were transiently transfected with EGFP-FKBP-LC8TRAP for 24 h, after which they were treated with PhAP or AP (0 nM-1000 nM) for 2 h. Cells were then fixed and stained with an early endosome marker 1 (EEA1). The number of cells with dispersed endosomes after treatment with PhAP or AP was indistinguishable. The maximum number of cells with dispersed endosomes (67.5±7.0% for PhAP and 64.1±7.6% for non-photocleavable AP), was obtained at dimerizer concentrations greater than 500 nM. The rate of dispersion was also similar using either dimerizing agent, and no changes were observed past 2 hours. The values obtained for both AP and PhAP are also in agreement with our previous studies. See e.g., Varma et al., 2010 (Id.)

[4] = modified FKBP-IC trap, PIK to GGS (round 3)
[5] = 500 nM, time 0.167 Hr (10 min.)

CCC(C(=O)N1CCCCC1C(=O)OC(CCc1ccc(OC)c(OC)c1)c1cccc(OCC(=O)NCC(CNC(=O)COc2cccc(C(CCc3ccc(OC)c(OC)c3)OC(=O)C3CCCCN3C(=O)C(CC)c3cc(OC)c(OC)c(OC)c3)c2)CN(C)C)c1)c1cc(OC)c(OC)c(OC)c1 (stereo not shown) [AP, AP20187]
effect on dispersion for each organelle ([1]; AP20187 for 8 h): did not affect the dispersion
dispersal of organelles at any concentration tested ([1]; non-transfected cells, <2 μM): did not show dispersal
fold higher concentration of AP20187 required for shift than the LC8/LC8-trap interaction ([2]; FKBP-IC (L112A) peptide and TcTex1 (round 2)): 16 fold
concentration of AP20187 to fully sequester TcTex1 relative to that required for the LC8-trap [2, 4]: approximately twice
fold lower concentration of AP20187 to fully sequester TcTex1 than the FKBP-IC (L112A) peptide [2, 4]: ~8 fold
Percentage of endosomes dispersion ([3]; 10 nM, 2 hr. of treatment): 44.4 ± 2.4%
Percentage of endosomes dispersion ([3]; 20 nM, 2 hr. of treatment): 53.0 ± 3.5%
Percentage of endosomes dispersion ([3]; 100 nM, 2 hr. of treatment): 56.2 ± 1.6%
Percentage of endosomes dispersion ([3]; 500 nM, 2 hr. of treatment): 64.1 ± 7.6%
Percentage of endosomes dispersion ([3]; 500 nM, time 0 Hr): 30.2 ± 2.8%
Percentage of endosomes dispersion [3, 5]: 45.0 ± 2.6%
Percentage of endosomes dispersion ([3]; 500 nM, time 0.5 Hr): 53.6 ± 6.5%
Percentage of endosomes dispersion ([3]; 500 nM, time 1 Hr): 53.8 ± 2.9%
Percentage of endosomes dispersion ([3]; 500 nM, time 2 Hr): 69.8 ± 4.3%
Percentage of endosomes dispersion ([3]; 500 nM, time 4 Hr): 70.9 ± 2.1%
time of drug treatment after which maximum dispersion was reached ([3]; 500 nM): 2 h
Percentage of endosomes dispersion ([3]; 1000 nM, 2 hr. of treatment): 66.4 ± 2.5%
maximum number of cells with dispersed endosomes [3]: 64.1±7.6%
drug concentration at which maximum dispersion is seen [3]: 500 nM

CC[C@H](C(=O)N1CCCC[C@H]1C(=O)O[C@H](CCc1ccc(OC)c(OC)c1)c1cccc(OCC(=O)OC(C)c2ccc(C(C)OC(=O)COc3cccc([C@@H](CCc4ccc(OC)c(OC)c4)OC(=O)[C@@H]4CCCCN4C(=O)[C@@H](CC)c4cc(OC)c(OC)c(OC)c4)c3)c([N+](=O)[O-])c2)c1)c1cc(OC)c(OC)c(OC)c1 (stereo partly shown) [PhAP]
Percentage of endosomes dispersion ([3]; 10 nM, 2 hr. of treatment): 47.9 ± 8.1%
Percentage of endosomes dispersion ([3]; 20 nM, 2 hr. of treatment): 48.0 ± 5.0%
Percentage of endosomes dispersion ([3]; 50 nM, 2 hr. of treatment): 55.5 ± 1.3%
Percentage of endosomes dispersion ([3]; 100 nM, 2 hr. of treatment): 57.5 ± 2.4%
Percentage of endosomes dispersion ([3]; 500 nM, 2 hr. of treatment): 67.5 ± 7.0%
Percentage of endosomes dispersion ([3]; 500 nM, time 0 Hr): 29.0 ± .8%
Percentage of endosomes dispersion [3, 5]: 47.2 ± 2.5%
Percentage of endosomes dispersion ([3]; 500 nM, time 0.5 Hr): 49.1 ± 3.3%
Percentage of endosomes dispersion ([3]; 500 nM, time 1 Hr): 57.2 ± 5.2%
Percentage of endosomes dispersion ([3]; 500 nM, time 2 Hr): 71.2 ± 2.0%
Percentage of endosomes dispersion ([3]; 500 nM, time 4 Hr): 69.0 ± 4.9%
time of drug treatment after which maximum dispersion was reached ([3]; 500 nM): 2 h
Percentage of endosomes dispersion ([3]; 1000 nM, 2 hr. of treatment): 67.7 ± 4.9%
maximum number of cells with dispersed endosomes [3]: 67.5±7.0%
drug concentration at which maximum dispersion is seen [3]: 500 nM
